Experimental data reported in US8299111B2, “Compounds which modulate the CB2 receptor” (Boehringer Ingelheim International GmbH, priority 2006, dated 2012).

biological target: T1, human CB2R (Homo sapiens, UniProt P34972); assay: CB2R mediated modulation of cAMP synthesis; type: cell-based; conditions: found through the use of the above described assays (binding and cAMP); CHO cells expressing human CB2R, forskolin-stimulated cAMP
T1 construct: host or cells: CHO cells
Outline: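 EC50 values reflect inhibition of cAMP made in response to 10 uM forskolin (with 1 mM IBMX, 0.25% BSA) over 30 min at 37 °C in human CB2R-expressing CHO cells. The window runs from forskolin alone to 1 uM CP55940; curves fitted with a four-parameter logistic model.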

T1 sequence (P34972 whole entry): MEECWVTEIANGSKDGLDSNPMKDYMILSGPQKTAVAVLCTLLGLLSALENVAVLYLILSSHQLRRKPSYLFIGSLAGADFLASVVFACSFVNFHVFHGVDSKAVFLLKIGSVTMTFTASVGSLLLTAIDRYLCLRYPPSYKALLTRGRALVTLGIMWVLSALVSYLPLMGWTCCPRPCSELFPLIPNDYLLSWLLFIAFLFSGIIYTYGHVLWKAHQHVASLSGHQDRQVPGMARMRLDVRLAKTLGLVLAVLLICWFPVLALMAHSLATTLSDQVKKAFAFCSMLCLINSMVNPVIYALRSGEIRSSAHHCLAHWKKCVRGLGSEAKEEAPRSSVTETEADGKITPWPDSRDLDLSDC

Structure (SMILES) | agonistic activity
Cc1nc(NC(=O)C2(S(=O)(=O)c3ccc(C(F)(F)F)cc3)CC2)sc1C(C)(C)C [1-(4-Trifluoromethyl-benzenesulfonyl)-cyclopropanecarboxylic acid (5-tert-butyl-4-methyl-thiazol-2-yl)-amide] | agonistic activity
CC(C)c1cc(NC(=O)C(C)(C)S(=O)(=O)c2ccc(Cl)cc2)n(C)n1 [2-(4-Chloro-benzenesulfonyl)-N-(5-isopropyl-2-methyl-2H-pyrazol-3-yl)-2-methyl-propionamide] | agonistic activity
O=C(Nc1cc(C(F)(F)F)ccn1)C1(S(=O)(=O)c2ccc(C(F)(F)F)cc2)CC1 [1-(4-Trifluoromethyl-benzenesulfonyl)-cyclopropanecarboxylic acid (4-trifluoromethyl-pyridin-2-yl)-amide] | agonistic activity
COc1ccc(S(=O)(=O)C(C)(C)C(=O)Nc2nc(C)c(C(C)(C)C)s2)cc1 [N-(5-tert-Butyl-4-methyl-thiazol-2-yl)-2-(4-methoxy-benzenesulfonyl)-2-methyl-propionamide] | agonistic activity
CCCc1cc(NC(=O)C(C)(C)S(=O)(=O)c2ccc(C(F)(F)F)nc2)on1 [2-methyl-N-(3-propylisoxazol-5-yl)-2-{[6-(trifluoromethyl)pyridin-3-yl]sulfonyl}propanamide] | agonistic activity
CC(C)(C(=O)Nc1nc(-c2ccccc2)ns1)S(=O)(=O)c1ccc(Cl)cc1 [2-(4-Chloro-benzenesulfonyl)-2-methyl-N-(3-phenyl-[1,2,4]thiadiazol-5-yl)-propionamide] | agonistic activity
CC(C)(C(=O)Nc1cccc2ccccc12)S(=O)(=O)c1ccc(C(F)(F)F)nc1 [2-methyl-N-1-naphthyl-2-{[6-(trifluoromethyl)pyridin-3-yl]sulfonyl}propanamide] | agonistic activity
CC(C)(C(=O)Nc1cc(-c2ccccc2)no1)S(=O)(=O)c1ccc(Cl)cc1 [2-(4-Chloro-benzenesulfonyl)-2-methyl-N-(3-phenyl-isoxazol-5-yl)-propionamide] | agonistic activity
CC(C)(C)c1cc(NC(=O)C2(S(=O)(=O)c3ccc(C(F)(F)F)cc3)CCC2)no1 [1-(4-Trifluoromethyl-benzenesulfonyl)-cyclobutanecarboxylic acid (5-tert-butyl-isoxazol-3-yl)-amide] | agonistic activity
COc1ccc(S(=O)(=O)C(C)(C)C(=O)Nc2nc(C(F)(F)F)cs2)cc1 [2-(4-Methoxy-benzenesulfonyl)-2-methyl-N-(4-trifluoromethyl-thiazol-2-yl)-propionamide] | agonistic activity
CC(C)(C)c1cc(NC(=O)C2(S(=O)(=O)c3ccc(Cl)cc3)CC2)no1 [1-(4-Chloro-benzenesulfonyl)-cyclopropanecarboxylic acid (5-tert-butyl-isoxazol-3-yl)-amide] | agonistic activity
CC(C)(C(=O)Nc1cccc2ccccc12)S(=O)(=O)c1ccc(F)cc1F [2-(2,4-Difluoro-benzenesulfonyl)-2-methyl-N-naphthalen-1-yl-propionamide] | agonistic activity
CC(C)(C)c1cc(NC(=O)C(C)(C)S(=O)(=O)c2ccc(C(F)(F)F)cc2)on1 [N-(3-tert-Butyl-isoxazol-5-yl)-2-methyl-2-(4-trifluoromethyl-benzenesulfonyl)-propionamide] | agonistic activity
CC(C)(C)c1cc(NC(=O)C(C)(C)S(=O)(=O)c2ccc(C(F)(F)F)nc2)no1 [N-(5-tert-Butyl-isoxazol-3-yl)-2-methyl-2-(6-trifluoromethyl-pyridine-3-sulfonyl)-propionamide] | agonistic activity
Cc1sc(NC(=O)C(C)(C)S(=O)(=O)c2ccc(Cl)cc2)nc1-c1ccc(F)cc1 [2-[(4-chlorophenyl)sulfonyl]-N-[4-(4-fluorophenyl)-5-methyl-1,3-thiazol-2-yl]-2-methylpropanamide] | agonistic activity
Cc1ccc(NC(=O)C(C)(C)S(=O)(=O)c2ccc(S(C)(=O)=O)cc2)nc1 [2-(4-Methanesulfonyl-benzenesulfonyl)-2-methyl-N-(5-methyl-pyridin-2-yl)-propionamide] | agonistic activity
CCc1sc(NC(=O)C(C)(C)S(=O)(=O)c2ccc(Cl)cc2)nc1-c1ccccc1 [2-(4-Chloro-benzenesulfonyl)-N-(5-ethyl-4-phenyl-thiazol-2-yl)-2-methyl-propionamide] | agonistic activity
Cn1nc(C(C)(C)C)cc1NC(=O)C1(S(=O)(=O)c2ccc(Cl)cc2)CC1 [1-(4-Chloro-benzenesulfonyl)-cyclopropanecarboxylic acid (5-tert-butyl-2-methyl-2H-pyrazol-3-yl)-amide] | agonistic activity
Cc1cnc(NC(=O)C(C)(C)S(=O)(=O)c2ccc(C(F)(F)F)cn2)s1 [2-Methyl-N-(5-methyl-thiazol-2-yl)-2-(5-trifluoromethyl-pyridine-2-sulfonyl)-propionamide] | agonistic activity

Structure (SMILES) | agonistic activity
Cc1ccc(S(=O)(=O)C(C)(C)C(=O)Nc2cc(C(C)(C)C)nn2C)cc1F [N-(5-tert-Butyl-2-methyl-2H-pyrazol-3-yl)-2-(3-fluoro-4-methyl-benzenesulfonyl)-2-methyl-propionamide] | agonistic activity
CC(C)(C(=O)Nc1nc(-c2cccnc2)cs1)S(=O)(=O)c1ccc(F)cc1F [2-(2,4-Difluoro-benzenesulfonyl)-2-methyl-N-(4-pyridin-3-yl-thiazol-2-yl)-propionamide] | agonistic activity
CC(C)(C)c1cc(NC(=O)C(C)(C)S(=O)(=O)c2ccc[n+]([O-])c2)no1 | agonistic activity
CC(C)(C(=O)Nc1cccc(C(F)(F)F)c1)S(=O)(=O)c1ccc(Cl)cc1 [2-(4-Chloro-benzenesulfonyl)-2-methyl-N-(3-trifluoromethyl-phenyl)-propionamide] | agonistic activity
CC(C)(C)c1cc(NC(=O)C(C)(C)S(=O)(=O)c2ccc(Cl)cc2)no1 [N-(5-tert-Butyl-isoxazol-3-yl)-2-(4-chloro-benzenesulfonyl)-2-methyl-propionamide] | agonistic activity
Cn1nc(-c2ccccc2)cc1NC(=O)C(C)(C)S(=O)(=O)c1ccc(Cl)cc1F [2-(4-Chloro-2-fluoro-benzenesulfonyl)-2-methyl-N-(2-methyl-5-phenyl-2H-pyrazol-3-yl)-propionamide] | agonistic activity
CC(C)(C(=O)Nc1nc2ccccc2o1)S(=O)(=O)c1ccc(S(C)(=O)=O)cc1 [N-1,3-benzoxazol-2-yl-2-methyl-2-{[4-(methylsulfonyl)phenyl]sulfonyl}propanamide] | agonistic activity
Cn1nc(C(C)(C)C)cc1NC(=O)C1(S(=O)(=O)c2ccc(C(F)(F)F)cc2)CCOCC1 [4-(4-Trifluoromethyl-benzenesulfonyl)-tetrahydro-pyran-4-carboxylic acid (5-tert-butyl-2-methyl-2H-pyrazol-3-yl)-amide] | agonistic activity
Cc1ccc(S(=O)(=O)C(C)(C)C(=O)Nc2ccc(C(F)(F)F)cn2)cn1 [2-Methyl-2-(6-methyl-pyridine-3-sulfonyl)-N-(5-trifluoromethyl-pyridin-2-yl)-propionamide] | agonistic activity
Cc1ccc(S(=O)(=O)C(C)(C)C(=O)Nc2cc(C(C)(C)C)no2)cc1 [N-(3-tert-Butyl-isoxazol-5-yl)-2-methyl-2-(toluene-4-sulfonyl)-propionamide] | agonistic activity
CC(C)(C)c1nnc(NC(=O)C(C)(C)S(=O)(=O)c2ccc(Cl)cc2)s1 [N-(5-tert-Butyl-[1,3,4]thiadiazol-2-yl)-2-(4-chloro-benzenesulfonyl)-2-methyl-propionamide] | agonistic activity
CC(C)(C(=O)Nc1cccc(C(F)(F)F)c1)S(=O)(=O)c1ccc(S(C)(=O)=O)cc1 [2-methyl-2-{[4-(methylsulfonyl)phenyl]sulfonyl}-N-[3-(trifluoromethyl)phenyl]propanamide] | agonistic activity
CC(C)(C)Cc1cc(NC(=O)C(C)(C)S(=O)(=O)c2ccc(C(F)(F)F)nc2)on1 [N-[3-(2,2-dimethylpropyl)isoxazol-5-yl]-2-methyl-2-{[6-(trifluoromethyl)pyridin-3-yl]sulfonyl}propanamide] | agonistic activity
CC(C)(C(=O)Nc1nc2ccccc2o1)S(=O)(=O)c1ccc(C(F)(F)F)nc1 [N-1,3-benzoxazol-2-yl-2-methyl-2-{[6-(trifluoromethyl)pyridin-3-yl]sulfonyl}propanamide] | agonistic activity
CC(C)(C(=O)Nc1cccc(C(F)(F)F)n1)S(=O)(=O)c1ccc(F)cc1F [2-[(2,4-difluorophenyl)sulfonyl]-2-methyl-N-[6-(trifluoromethyl)pyridin-2-yl]propanamide] | agonistic activity
CC(C)(C(=O)Nc1n[nH]c(-c2ccccc2)n1)S(=O)(=O)c1ccc(Cl)cc1 [2-(4-Chloro-benzenesulfonyl)-2-methyl-N-(5-phenyl-2H-[1,2,4]triazol-3-yl)-propionamide] | agonistic activity
Cn1nc(C2CC2)cc1NC(=O)C(C)(C)S(=O)(=O)c1ccc(F)cc1F [N-(5-Cyclopropyl-2-methyl-2H-pyrazol-3-yl)-2-(2,4-difluoro-benzenesulfonyl)-2-methyl-propionamide] | agonistic activity
Cn1nc(C(C)(C)C)cc1NC(=O)C(C)(C)S(=O)(=O)c1ccccc1F [N-(5-tert-Butyl-2-methyl-2H-pyrazol-3-yl)-2-(2-fluoro-benzenesulfonyl)-2-methyl-propionamide] | agonistic activity
CC(C)(C)c1cc(NC(=O)C(C)(C)S(=O)(=O)c2cc(F)ccc2F)no1 [N-(5-tert-Butyl-isoxazol-3-yl)-2-(2,5-difluoro-benzenesulfonyl)-2-methyl-propionamide] | agonistic activity
